Measurements published in the supplement of paper PMC11061612.

Assays:
Test in all cases: combination Emax (second highest fraction inhibited in the dose matrix, 72 h); higher = more inhibition; extreme values may be limits of the assay
GAMG (Glioblastoma) = system: GAMG (Glioblastoma)
Procedure, shortened: (§1)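 Cell lines in DMEM/F12 or RPMI with 10% FBS were plated in 1536-well plates, held 24 hours at 37°C, 5% CO2, then given two-drug dose matrices for 72 hours (DMSO typically 0.2%). Viability was read by CellTiter-Glo 2.0 luminescence and scaled as inhibition from 0 (vehicle wells) to 1 (blank wells). Combination Emax is the second-highest inhibition in the matrix; Bliss excess is observed combination effect minus expected EA + EB − EA·EB, EA and EB being single-agent effects.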

[1] = system: LNZTA3WT4 (Low Grade Glioma)
Procedure, shortened: as §1

[2] = system: BE-13 (T-Lymphoblastic Leukemia)
Procedure, shortened: as §1

[3] = system: KYAE-1 (Esophageal Adenocarcinoma)
Procedure, shortened: as §1

[4] = system: ALL-PO (B-Lymphoblastic Leukemia)
Procedure, shortened: as §1

[5] = system: KMRC-20 (Kidney Carcinoma)
Procedure, shortened: as §1

[6] = system: HH (T-Cell Non-Hodgkin's Lymphoma)
Procedure, shortened: as §1

[7] = system: LCLC-97TM1 (Non-Small Cell Lung Carcinoma)
Procedure, shortened: as §1

BE2-M17 (Neuroblastoma) = system: BE2-M17 (Neuroblastoma)
Procedure, shortened: as §1

EW-11 (Ewing's Sarcoma) = system: EW-11 (Ewing's Sarcoma)
Procedure, shortened: as §1

[8] = system: OVCAR-5 (Ovarian Carcinoma)
Procedure, shortened: as §1

[9] = system: YAPC (Pancreatic Carcinoma)
Procedure, shortened: as §1

[10] = system: MHH-CALL-2 (B-Lymphoblastic Leukemia)
Procedure, shortened: as §1

[11] = system: SNU-16 (Gastric Carcinoma)
Procedure, shortened: as §1

BPH-1 (Non-Cancerous) = system: BPH-1 (Non-Cancerous)
Procedure, shortened: as §1

[12] = system: ESS-1 (Other Solid Carcinomas)
Procedure, shortened: as §1

MPP-89 (Mesothelioma) = system: MPP-89 (Mesothelioma)
Procedure, shortened: as §1

[13] = system: TGBC1TKB (Biliary Tract Carcinoma)
Procedure, shortened: as §1

[14] = system: NUGC-4 (Gastric Carcinoma)
Procedure, shortened: as §1

[15] = system: WSU-NHL (B-Cell Non-Hodgkin's Lymphoma)
Procedure, shortened: as §1

Row | SMILES | combination Emax (GAMG (Glioblastoma)) | combination Emax [1] | combination Emax [2] | combination Emax [3] | combination Emax [4] | combination Emax [5] | combination Emax [6] | combination Emax [7] | combination Emax (BE2-M17 (Neuroblastoma)) | combination Emax (EW-11 (Ewing's Sarcoma)) | combination Emax [8] | combination Emax [9] | combination Emax [10] | combination Emax [11] | combination Emax (BPH-1 (Non-Cancerous)) | combination Emax [12] | combination Emax (MPP-89 (Mesothelioma)) | combination Emax [13] | combination Emax [14] | combination Emax [15]
1 | NC1(C(=O)N[C@@H](CCO)c2ccc(Cl)cc2)CCN(c2ncnc3[nH]ccc23)CC1 [Capivasertib] + Cn1cnc2c(F)c(Nc3ccc(Br)cc3Cl)c(C(=O)NOCCO)cc21 [Selumetinib] (first compound max 10 µM, 7x7, partner max 10 µM) | 0.653 | 0.445 | 0.276 | 0.13 | 0.726 | 0.392 | 0.246 | 0.849 | 0.654 | 0.453 | 0.69 | 0.346 | 0.582 | 0.461 | 0.716 | 0.526 | 0.386 | 0.475 | 0.329 | 0.92
2 | CS(=O)(=O)CCNCc1ccc(-c2ccc3ncnc(Nc4ccc(OCc5cccc(F)c5)c(Cl)c4)c3c2)o1 [Lapatinib] + C[C@@H](Oc1cc(-c2cnn(C3CCNCC3)c2)cnc1N)c1c(Cl)ccc(F)c1Cl [Crizotinib] (first compound max 10 µM, 7x7, partner max 10 µM) | 0.82 | 0.872 | 0.988 | 0.842 | 1 | 0.916 | 0.327 | 0.979 | 0.868 | 0.936 | 0.834 | 0.636 | 1 | 0.973 | 0.949 | 0.917 | 0.696 | 0.616 | 0.808 | 0.966
3 | CC(=O)c1c(C)c2cnc(Nc3ccc(N4CCNCC4)cn3)nc2n(C2CCCC2)c1=O [Palbociclib] + CC1(C)CCC(CN2CCN(c3ccc(C(=O)NS(=O)(=O)c4ccc(NCC5CCOCC5)c([N+](=O)[O-])c4)c(Oc4cnc5[nH]ccc5c4)c3)CC2)=C(c2ccc(Cl)cc2)C1 [Venetoclax] (first compound max 10 µM, 7x7, partner max 1 µM) | 0.231 | 0.307 | 0.588 | 0.132 | 0.931 | 0.214 | 0.343 | 0.176 | 0.386 | 0.203 | 0.346 | 0.165 | 0.155 | 0.699 | 0.153 | 0.294 | 0.0837 | 0.033 | 0.194 | 0.92
4 | CC(=O)c1c(C)c2cnc(Nc3ccc(N4CCNCC4)cn3)nc2n(C2CCCC2)c1=O [Palbociclib] + Cc1c2c(nn1C)CSCc1cc(n(C)n1)CSc1cc(c3ccccc3c1)OCCCc1c(C(=O)O)n(C)c3c-2c(Cl)ccc13 [AZD5991] (first compound max 10 µM, 7x7, partner max 1 µM) | 0.305 | 0.411 | 0.815 | 0.126 | 1 | 0.291 | 0.911 | 0.263 | 0.409 | 0.605 | 0.389 | 0.288 | 0.998 | 0.973 | 0.281 | 0.266 | 0.261 | 0.164 | 0.252 | 0.928
5 | CC(=O)c1c(C)c2cnc(Nc3ccc(N4CCNCC4)cn3)nc2n(C2CCCC2)c1=O [Palbociclib] + Cn1cnc2c(F)c(Nc3ccc(Br)cc3Cl)c(C(=O)NOCCO)cc21 [Selumetinib] (first compound max 10 µM, 7x7, partner max 10 µM) | 0.314 | 0.333 | 0.691 | 0.124 | 0.697 | 0.158 | 0.407 | 0.64 | 0.606 | 0.168 | 0.587 | 0.379 | 0.31 | 0.771 | 0.518 | 0.283 | 0.14 | 0.167 | 0.392 | 0.886
6 | COc1cccc(OCCCN)c1-c1cc(Nc2cnc(C#N)cn2)n[nH]1 [Prexasertib] + CCc1c2c(nc3ccc(O)cc13)-c1cc3c(c(=O)n1C2)COC(=O)[C@]3(O)CC [SN-38] (first compound max 1 µM, 7x7, partner max 0.3 µM) | 0.993 | 0.949 | 1 | 0.79 | 0.993 | 0.982 | 0.829 | 1 | 0.999 | 0.749 | 0.89 | 0.653 | 1 | 1 | 0.972 | 1 | 0.897 | 0.632 | 0.484 | 1
7 | Cn1cnc2c(F)c(Nc3ccc(Br)cc3Cl)c(C(=O)NOCCO)cc21 [Selumetinib] + C=CCn1c(=O)c2cnc(Nc3ccc(N4CCN(C)CC4)cc3)nc2n1-c1cccc(C(C)(C)O)n1 [AZD1775] (first compound max 10 µM, partner max 1 µM) | 0.527 | 0.57 | 1 | 0.116 | 0.978 | 0.567 | 0.0977 | 0.87 | 0.887 | 0.42 | 0.58 | 0.396 | 0.793 | 0.802 | 0.535 | 0.936 | 0.566 | 0.233 | 0.526 | 0.854
